Experimental data: patent US6486161B1, “Use of rifamycin derivative for treating mastitis in a domestic animal” (priority 2000, dated 2002)
In brackets after ≈: the same amount, converted by molar mass. Read-outs that look alike come from different tables or passages of the source.

Columns and labels:
[1] = test system: rifampin-resistant S. aureus 30865; test: microbe, parasite or virus in culture; assay type: cell-based, Staphylococcus aureus; settings: strain 30865
Protocol: (§1) The antibacterial effect of the rifamycin derivative (1) against rifampin-resistant Staphylococcus aureus bacterial strains was determined. The tested bacterial strains were isolated from a variety of animal diseases as well as laboratory strains.
(§2) All bacteria were maintained on 3 mm glass beads immersed in trypticase soy broth (BBL Microbiology Systems, Cockeysville, Md.) with 10% glycerol and held at −70° C. until revived. Prior to testing, the organisms were subcultured on tryptose blood agar base (Difco, Detroit, Mich.) supplemented with 5% sheep blood for 24 hours at 35° C.
(§3) The compounds were dissolved in 95% ethanol and diluted to 10% ethanol in sterile, distilled water except for the compounds used in the in vivo testing where saline was used to dilute the original ethanol/drug suspension. Further dilutions were conducted in water or saline.
(§4) MICs were determined using the microbroth dilution method. In addition to the test organisms, the following quality control strain also was tested: Staphylococcus aureus ATCC 29213. The results are shown in Table 5, wherein R is the alkyl group R in the rifamycin derivative (1).

[2] = test system: rifampin-resistant S. aureus 31068; test: microbe, parasite or virus in culture; assay type: cell-based, Staphylococcus aureus; settings: strain 31068
Protocol: as §1, §2, §3, §4

[3] = test system: rifampin-resistant S. aureus 30862; test: microbe, parasite or virus in culture; assay type: cell-based, Staphylococcus aureus; settings: strain 30862
Protocol: as §1, §2, §3, §4

[4] = test system: rifampin-resistant S. aureus 30860; test: microbe, parasite or virus in culture; assay type: cell-based, Staphylococcus aureus; settings: strain 30860
Protocol: as §1, §2, §3, §4

[5] = test system: rifampin-resistant S. aureus 30871; test: microbe, parasite or virus in culture; assay type: cell-based, Staphylococcus aureus; settings: strain 30871
Protocol: as §1, §2, §3, §4

[6] = test system: rifampin-resistant S. aureus 30863; test: microbe, parasite or virus in culture; assay type: cell-based, Staphylococcus aureus; settings: strain 30863
Protocol: as §1, §2, §3, §4

[7] = test system: rifampin-resistant S. aureus B93-728M; test: microbe, parasite or virus in culture; assay type: cell-based, Staphylococcus aureus; settings: strain B93-728M
Protocol: as §1, §2, §3, §4

[8] = test system: rifampin-resistant S. aureus 30859; test: microbe, parasite or virus in culture; assay type: cell-based, Staphylococcus aureus; settings: strain 30859
Protocol: as §1, §2, §3, §4

[9] = test system: rifampin-resistant S. aureus 30858; test: microbe, parasite or virus in culture; assay type: cell-based, Staphylococcus aureus; settings: strain 30858
Protocol: as §1, §2, §3, §4

[10] = test system: rifampin-resistant S. aureus 30867; test: microbe, parasite or virus in culture; assay type: cell-based, Staphylococcus aureus; settings: strain 30867
Protocol: as §1, §2, §3, §4

[11] = test system: rifampin-resistant S. aureus 30869; test: microbe, parasite or virus in culture; assay type: cell-based, Staphylococcus aureus; settings: strain 30869
Protocol: as §1, §2, §3, §4

[12] = test system: rifampin-resistant S. aureus 12637; test: microbe, parasite or virus in culture; assay type: cell-based, Staphylococcus aureus; settings: strain 12637
Protocol: as §1, §2, §3, §4

[13] = test system: rifampin-resistant S. aureus 30888; test: microbe, parasite or virus in culture; assay type: cell-based, Staphylococcus aureus; settings: strain 30888
Protocol: as §1, §2, §3, §4

[14] = test system: Staphylococcus aureus 6097; test: Dose titration in the mouse mastitis model (S. aureus-induced murine mastitis); assay type: in vivo; settings: mice, read 6 days after infection; for ED (mg/kg/d) Mastitis: 50% of mice without mastitis; for ED (mg/kg/d) Culture: 50% of mice with no bacteria cultured from gland
[15] = test system: S. aureus 6097; test: MIC, microbroth dilution, strain 6097; assay type: cell-based, Staphylococcus aureus
Protocol: Four S. aureus strains were used: S. aureus 30857, a rifampin-resistant isolate: S. aureus 6097, a strain used in the mouse mastitis test and originally from a case of gangrenous bovine mastitis; S. aureus B83-1, derived from the Newbould 305 strain; and S. aureus ATCC 29213, the in vitro control stain recommended by NCCLS.
as §2, with “S. aureus strains” for “bacteria”, “strains” for “organisms”
These compounds were dissolved in 95% ethanol, a solution which was then diluted to 10% ethanol with sterile distilled water. Further dilutions were conducted in water.
MIC (Minimum Inhibitory Concentration) determinations were performed using the microbroth dilution method. (National Committee for Clinical Laboratory Standards, 1990 Approved Standard […]. Methods for dilution antimicrobial susceptibility tests for bacteria that grow aerobically, 3rd edition. National Committee for Clinical Laboratory Standards, Villanova, Pa.) The results are shown in Table 3, wherein R is the alkyl group R in the rifamycin derivative (1).

[16] = test system: rifampin-resistant S. aureus isolated from diseased animals; assay type: cell-based, Staphylococcus aureus; settings: range over the 13 rifampin-resistant strains
Protocol: as §1, §2, §3, §4

[17] = route IMM (intramammary), 1 hour after infection
[18] = Staphylococcus aureus, read-out: MIC

Q: `COC1/C=C/OC2(C)Oc3c(C)c(O)c4c(=O)c(c5oc6cc(N7CCN(C)CC7)cc(O)c6nc-5c4c3C2=O)NC(=O)/C(C)=C\C=C\C(C)C(O)C(C)C(O)C(C)C(OC(C)=O)C1C` (centres unmarked) [R = methyl] was tested. Which MIC [1] did it give?
A: Its MIC is 0.06 µg/mL (≈ 0.0667 µM).

Q: What about the MIC [2] of the same compound?
A: The MIC was 2.0 µg/mL (≈ 2.22 µM).

Q: What about the MIC [3] of the same compound?
A: Its MIC is 2.0 µg/mL (≈ 2.22 µM).

Q: And the MIC [4]?
A: Its MIC is 4.0 µg/mL (≈ 4.45 µM).

Q: What about the MIC [5] of the same compound?
A: Its MIC is 2.0 µg/mL (≈ 2.22 µM).

Q: And the MIC [6]?
A: The MIC was 0.25 µg/mL (≈ 0.278 µM).

Q: What about the MIC [7] of the same compound?
A: The MIC was 0.5 µg/mL (≈ 0.556 µM).

Q: And the MIC [8]?
A: Its MIC is 0.25 µg/mL (≈ 0.278 µM).

Q: And the MIC [9]?
A: Its MIC is 2.0 µg/mL (≈ 2.22 µM).

Q: What about the MIC [10] of the same compound?
A: The MIC was 0.5 µg/mL (≈ 0.556 µM).

Q: What about the MIC [11] of the same compound?
A: The MIC was 0.25 µg/mL (≈ 0.278 µM).

Q: What about the MIC [12] of the same compound?
A: The MIC was 0.25 µg/mL (≈ 0.278 µM).

Q: And the MIC [13]?
A: The MIC was 0.13 µg/mL (≈ 0.145 µM).

Q: And the “ED (mg/kg/d) Mastitis” value [14, 17]?
A: The value was 0.3 mg/kg/day.

Q: And the “ED (mg/kg/d) Culture” value ([14]; route IMM (intramammary))?
A: The value was 0.3 mg/kg/day.

Q: And the “ED (mg/kg/d) Culture” value ([14]; route SC (subcutaneous))?
A: The value was 0.5 mg/kg/day.

Q: And the “ED (mg/kg/d) Mastitis” value ([14]; route SC (subcutaneous))?
A: Its value is 0.2 mg/kg/day.

Q: And the MIC [15]?
A: The MIC was 0.061 ng/mL (≈ 6.79e-05 µM).

Q: What about the “MIC Range” value [16] of the same compound?
A: Its value is 0.06 to 4.0 µg/mL.

Q: Which results are given for `CO[C@H]1/C=C/O[C@@]2(C)Oc3c(C)c(O)c4c(O)c(c(/C=N/N5CCN(C)CC5)c(O)c4c3C2=O)NC(=O)/C(C)=C\C=C\[C@H](C)[C@H](O)[C@@H](C)[C@@H](O)[C@@H](C)[C@H](OC(C)=O)[C@@H]1C` [Rifampin, reference compound]?
A: MIC [1, 18]: 32 µg/mL (≈ 38.9 µM); MIC [2, 18]: 4 µg/mL (≈ 4.86 µM); MIC [3, 18]: > 32 µg/mL; MIC [4, 18]: > 32 µg/mL; MIC [5, 18]: > 32 µg/mL; MIC [6, 18]: > 32 µg/mL; MIC [7, 18]: 2 µg/mL (≈ 2.43 µM); MIC [8, 18]: > 32 µg/mL; MIC [9, 18]: 8 µg/mL (≈ 9.72 µM); MIC [10, 18]: 32 µg/mL (≈ 38.9 µM); MIC [11, 18]: 4 µg/mL (≈ 4.86 µM); MIC [12, 18]: > 32 µg/mL; MIC [13, 18]: > 32 µg/mL; ED (mg/kg/d) Mastitis [14, 17]: 0.4 mg/kg/day; ED (mg/kg/d) Culture ([14]; route IMM (intramammary)): >2.0 mg/kg/day; MIC [15, 18]: 1.9 ng/mL (≈ 0.00231 µM)
